Experiments:
Test in all cases: biochemical
Parameters in all cases: species or system HEK293/K-562/placenta mixed human extract; Kinobeads chemoproteomic competition binding, quantified by TMT LC-MS/MS, dose response up to 20 uM
[1] = target: STK17A (Homo sapiens, UniProt Q9UEE5)
[2] = target: PRKACA (Homo sapiens, UniProt P17612)
[3] = target: NUAK2 (Homo sapiens, UniProt Q9H093)
[4] = target: MARK3 (Homo sapiens, UniProt P27448)
[5] = target: CAMKK1 (Homo sapiens, UniProt Q8N5S9)
[6] = target: NUAK1 (Homo sapiens, UniProt O60285)
NUAK1, sequence (O60285 whole entry): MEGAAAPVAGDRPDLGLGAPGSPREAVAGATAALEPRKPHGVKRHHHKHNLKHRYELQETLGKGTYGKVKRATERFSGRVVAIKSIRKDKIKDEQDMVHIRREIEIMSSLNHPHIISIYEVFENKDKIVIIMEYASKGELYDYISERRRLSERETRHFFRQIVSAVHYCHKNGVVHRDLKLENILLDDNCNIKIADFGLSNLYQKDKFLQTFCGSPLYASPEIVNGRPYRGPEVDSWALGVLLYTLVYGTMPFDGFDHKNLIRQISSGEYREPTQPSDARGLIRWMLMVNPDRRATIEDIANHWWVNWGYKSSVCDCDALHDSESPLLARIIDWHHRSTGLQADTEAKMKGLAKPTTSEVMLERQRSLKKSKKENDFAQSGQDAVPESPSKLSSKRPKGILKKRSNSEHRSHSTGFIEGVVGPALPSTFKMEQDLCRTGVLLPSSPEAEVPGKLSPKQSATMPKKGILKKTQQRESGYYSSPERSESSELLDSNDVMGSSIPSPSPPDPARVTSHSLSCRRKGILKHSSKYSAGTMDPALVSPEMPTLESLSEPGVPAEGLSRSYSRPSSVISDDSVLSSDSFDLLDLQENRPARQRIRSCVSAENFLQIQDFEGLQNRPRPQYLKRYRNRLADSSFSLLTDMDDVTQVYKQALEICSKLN

[7] = target: BMX (Homo sapiens, UniProt P51813)
BMX, sequence (P51813 whole entry): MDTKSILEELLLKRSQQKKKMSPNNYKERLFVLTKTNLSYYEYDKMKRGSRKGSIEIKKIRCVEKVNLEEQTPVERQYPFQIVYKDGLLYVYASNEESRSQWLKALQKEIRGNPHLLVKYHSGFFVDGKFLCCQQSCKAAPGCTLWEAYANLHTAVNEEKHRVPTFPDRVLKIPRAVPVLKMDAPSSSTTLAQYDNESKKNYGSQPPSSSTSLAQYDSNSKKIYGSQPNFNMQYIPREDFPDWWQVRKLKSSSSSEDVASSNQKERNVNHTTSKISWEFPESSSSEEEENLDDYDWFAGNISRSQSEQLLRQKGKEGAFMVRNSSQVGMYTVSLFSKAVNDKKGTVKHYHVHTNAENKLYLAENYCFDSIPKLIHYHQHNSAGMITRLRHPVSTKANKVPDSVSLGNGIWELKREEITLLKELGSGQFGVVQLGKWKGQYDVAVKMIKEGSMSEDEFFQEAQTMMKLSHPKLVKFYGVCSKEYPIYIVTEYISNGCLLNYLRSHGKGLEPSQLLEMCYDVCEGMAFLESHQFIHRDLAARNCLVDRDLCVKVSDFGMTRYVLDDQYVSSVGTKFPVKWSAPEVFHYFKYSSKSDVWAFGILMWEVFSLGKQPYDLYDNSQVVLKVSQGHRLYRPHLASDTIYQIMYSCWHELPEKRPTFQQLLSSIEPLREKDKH

[8] = target: MKNK2 (Homo sapiens, UniProt Q9HBH9)
[9] = target: WEE1 (Homo sapiens, UniProt P30291)
[10] = target: NRK (Homo sapiens, UniProt Q7Z2Y5)
[11] = target: SERPINB2 (Homo sapiens, UniProt P05120)
[12] = target: EPHA5 (Homo sapiens, UniProt P54756)
[13] = target: STK4 (Homo sapiens, UniProt Q13043)
[14] = target: LIMK1 (Homo sapiens, UniProt P53667)
LIMK1, sequence (P53667 whole entry): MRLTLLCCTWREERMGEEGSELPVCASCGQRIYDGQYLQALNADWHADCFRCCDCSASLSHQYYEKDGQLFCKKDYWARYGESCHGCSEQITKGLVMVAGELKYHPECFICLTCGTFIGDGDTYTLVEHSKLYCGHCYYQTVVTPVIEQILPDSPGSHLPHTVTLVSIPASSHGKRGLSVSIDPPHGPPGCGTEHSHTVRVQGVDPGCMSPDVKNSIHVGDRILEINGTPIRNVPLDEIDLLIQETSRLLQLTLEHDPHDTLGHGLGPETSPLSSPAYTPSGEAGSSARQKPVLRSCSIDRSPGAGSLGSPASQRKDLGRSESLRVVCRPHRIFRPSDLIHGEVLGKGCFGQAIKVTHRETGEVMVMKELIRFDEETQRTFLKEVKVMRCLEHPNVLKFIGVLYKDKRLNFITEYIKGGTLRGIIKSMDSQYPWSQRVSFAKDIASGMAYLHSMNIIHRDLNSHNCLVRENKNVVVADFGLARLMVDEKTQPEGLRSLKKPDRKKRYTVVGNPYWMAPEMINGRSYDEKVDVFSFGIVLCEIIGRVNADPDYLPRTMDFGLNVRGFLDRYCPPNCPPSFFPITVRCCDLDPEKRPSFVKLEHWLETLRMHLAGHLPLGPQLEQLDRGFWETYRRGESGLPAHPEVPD

[15] = target: ADCK1 (Homo sapiens, UniProt Q86TW2)
ADCK1, sequence (Q86TW2 whole entry): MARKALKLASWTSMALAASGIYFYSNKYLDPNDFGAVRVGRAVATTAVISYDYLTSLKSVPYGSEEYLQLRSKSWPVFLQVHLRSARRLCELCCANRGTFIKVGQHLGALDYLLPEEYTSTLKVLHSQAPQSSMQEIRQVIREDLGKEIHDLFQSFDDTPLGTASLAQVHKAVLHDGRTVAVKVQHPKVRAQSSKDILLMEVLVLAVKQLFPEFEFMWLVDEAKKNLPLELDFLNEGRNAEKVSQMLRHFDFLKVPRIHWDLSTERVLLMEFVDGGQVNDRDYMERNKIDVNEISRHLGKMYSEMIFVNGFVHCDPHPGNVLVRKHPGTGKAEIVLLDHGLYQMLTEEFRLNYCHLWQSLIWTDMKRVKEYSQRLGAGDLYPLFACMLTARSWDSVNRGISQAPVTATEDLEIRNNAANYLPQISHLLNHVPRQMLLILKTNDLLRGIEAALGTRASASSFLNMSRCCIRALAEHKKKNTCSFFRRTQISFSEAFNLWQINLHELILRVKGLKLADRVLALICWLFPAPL

[16] = target: MAP4K5 (Homo sapiens, UniProt Q9Y4K4)
[17] = target: ACVR1 (Homo sapiens, UniProt Q04771)
[18] = target: PRKD3 (Homo sapiens, UniProt O94806)
[19] = target: MET (Homo sapiens, UniProt P08581)
[20] = target: TESK2 (Homo sapiens, UniProt Q96S53)
TESK2, sequence (Q96S53 whole entry): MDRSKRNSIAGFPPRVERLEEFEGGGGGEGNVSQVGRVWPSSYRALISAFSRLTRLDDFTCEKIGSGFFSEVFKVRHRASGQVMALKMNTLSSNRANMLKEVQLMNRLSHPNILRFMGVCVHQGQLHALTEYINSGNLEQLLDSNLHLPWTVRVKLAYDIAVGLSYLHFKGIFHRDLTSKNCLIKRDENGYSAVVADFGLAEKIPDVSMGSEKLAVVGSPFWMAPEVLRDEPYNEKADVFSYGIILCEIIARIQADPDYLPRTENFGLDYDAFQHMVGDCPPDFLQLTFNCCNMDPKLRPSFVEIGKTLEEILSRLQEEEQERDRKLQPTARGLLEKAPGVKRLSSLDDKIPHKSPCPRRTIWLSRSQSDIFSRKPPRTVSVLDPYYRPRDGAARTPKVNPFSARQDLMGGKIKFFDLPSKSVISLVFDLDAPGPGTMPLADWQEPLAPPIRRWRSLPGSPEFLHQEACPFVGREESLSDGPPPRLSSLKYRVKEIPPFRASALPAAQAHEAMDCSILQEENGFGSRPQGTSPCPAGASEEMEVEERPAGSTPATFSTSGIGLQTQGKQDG

[21] = target: GSK3B (Homo sapiens, UniProt P49841)

Measured: IC50

MARK3, sequence (P27448 whole entry): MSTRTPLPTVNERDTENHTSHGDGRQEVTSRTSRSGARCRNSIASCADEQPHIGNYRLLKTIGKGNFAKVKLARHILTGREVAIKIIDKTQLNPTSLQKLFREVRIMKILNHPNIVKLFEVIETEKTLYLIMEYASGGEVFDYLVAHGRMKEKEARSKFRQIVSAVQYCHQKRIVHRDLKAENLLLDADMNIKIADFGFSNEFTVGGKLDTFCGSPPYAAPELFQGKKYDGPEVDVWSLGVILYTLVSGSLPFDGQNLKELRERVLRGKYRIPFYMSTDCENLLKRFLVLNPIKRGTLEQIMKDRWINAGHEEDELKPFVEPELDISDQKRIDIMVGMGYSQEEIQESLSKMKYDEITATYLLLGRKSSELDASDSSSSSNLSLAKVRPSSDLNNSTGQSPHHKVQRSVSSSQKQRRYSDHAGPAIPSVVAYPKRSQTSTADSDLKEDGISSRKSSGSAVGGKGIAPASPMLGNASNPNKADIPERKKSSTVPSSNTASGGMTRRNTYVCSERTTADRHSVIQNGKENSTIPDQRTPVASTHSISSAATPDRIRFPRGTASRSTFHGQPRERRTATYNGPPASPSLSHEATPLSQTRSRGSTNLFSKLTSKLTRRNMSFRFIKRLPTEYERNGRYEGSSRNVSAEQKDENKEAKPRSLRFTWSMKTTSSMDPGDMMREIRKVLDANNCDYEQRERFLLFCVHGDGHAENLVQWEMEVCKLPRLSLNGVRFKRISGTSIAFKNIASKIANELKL
CAMKK1, sequence (Q8N5S9 whole entry): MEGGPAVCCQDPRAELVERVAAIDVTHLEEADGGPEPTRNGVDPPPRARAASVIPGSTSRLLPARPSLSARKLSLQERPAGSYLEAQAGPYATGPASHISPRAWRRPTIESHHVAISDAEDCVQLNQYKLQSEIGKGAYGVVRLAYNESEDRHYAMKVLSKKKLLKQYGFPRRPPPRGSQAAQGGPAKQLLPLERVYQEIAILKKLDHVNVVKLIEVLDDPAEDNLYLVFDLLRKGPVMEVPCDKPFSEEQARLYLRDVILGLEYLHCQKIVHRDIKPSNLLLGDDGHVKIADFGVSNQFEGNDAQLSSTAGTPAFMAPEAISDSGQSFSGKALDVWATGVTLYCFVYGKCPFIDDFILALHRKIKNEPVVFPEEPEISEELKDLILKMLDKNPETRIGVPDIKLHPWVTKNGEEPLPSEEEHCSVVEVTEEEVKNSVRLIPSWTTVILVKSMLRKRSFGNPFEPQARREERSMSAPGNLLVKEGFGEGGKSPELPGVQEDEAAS
NUAK2, sequence (Q9H093 whole entry): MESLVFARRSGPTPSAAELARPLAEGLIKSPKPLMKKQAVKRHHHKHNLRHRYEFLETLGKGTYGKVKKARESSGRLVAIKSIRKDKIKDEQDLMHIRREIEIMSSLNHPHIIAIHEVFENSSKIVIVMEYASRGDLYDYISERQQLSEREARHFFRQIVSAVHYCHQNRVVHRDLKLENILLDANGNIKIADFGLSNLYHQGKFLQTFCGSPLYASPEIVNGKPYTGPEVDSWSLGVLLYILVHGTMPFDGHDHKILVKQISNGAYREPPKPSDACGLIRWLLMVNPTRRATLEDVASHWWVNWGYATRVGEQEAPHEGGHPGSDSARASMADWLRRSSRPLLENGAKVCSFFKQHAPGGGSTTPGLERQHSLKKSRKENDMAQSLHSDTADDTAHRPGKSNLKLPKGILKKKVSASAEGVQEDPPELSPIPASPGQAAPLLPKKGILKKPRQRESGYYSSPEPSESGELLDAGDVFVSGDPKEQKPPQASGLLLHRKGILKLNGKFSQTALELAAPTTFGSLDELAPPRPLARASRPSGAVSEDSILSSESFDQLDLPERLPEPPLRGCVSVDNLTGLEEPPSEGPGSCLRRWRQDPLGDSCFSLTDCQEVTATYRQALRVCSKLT

COc1nc(N[C@H]2CC[C@H](NS(=O)(=O)CC(C)C)CC2)nc2[nH]nc(N3CCOC[C@H]3C)c12 [compound 39, N-(trans-4-((4-Methoxy-3-((R)-3-methylmorpholino)-1H-pyrazolo[3,4-d]pyrimidin-6-yl)amino)cyclohexyl)-2-methylpropane-1-sulfonamide]
≥ 20 µM: all assays above

— PMC6407917, “Identification of GSK3186899/DDD853651 as a Preclinical Development Candidate for the Treatment of Visceral Leishmaniasis” (Journal of Medicinal Chemistry, 2018)
